# pEC50: −log10 of the molar value.
# Key:
# SARS-CoV-2 [1] = details: 10 μM; cited from earlier work
# non-senescent BV2 cells = assay: Viability of non-senescent BV2 cells, sulforhodamine B (SRB) assay; format: cell-based; details: 48 h exposure, masitinib 0.1-2 μM and/or isoquercetin 1-20 μM
# Procedure: (§1) BV2 cells are retroviral-immortalized microglia-like cells, which are used as a model for cellular senescence. BV2 cells were cultured in Dulbecco's modified Eagle's medium supplemented with 10% heat-inactivated fetal bovine serum (hiFBS) and plated in 6-well multiwell plates for treatment and flow cytometry analysis.
# (§2) For cellular viability analysis of non-senescent cells (BV2 cells) and senescent cells (BV2 cells pretreated with TMZ), cells were plated in 96-well multiwell plates during 72 hours. […] After 48 hours of treatment, cell viability was analyzed by sulforhodamine B (SRB) assay. The optical density (OD) of each well was read in a 96-well plate reader at 540 nm. The OD of the SRB solution is directly proportional to the cell number.
# senescent BV2 cells = assay: Viability of senescent BV2 cells (pretreated with TMZ), SRB assay; format: cell-based; details: for cell viability of senescent BV2 cells, single agent: single agent below the high concentrations (2 μM masitinib, 20 μM isoquercetin)
# Procedure: as §1
# BV2 cells were treated with temozolomide (TMZ), an alkylating agent inducing DNA damage, in order to induce senescence of the cells. For senescence induction studies, cells were plated and treated twice with increasing doses (10-150 μM) of TMZ during 5 hours every 24 hours. After exposure of BV2 cells to two successive treatments with TMZ, their proliferation was reduced and the cells developed a characteristic senescent phenotype with enlarged size and flat-granulated shape. The senescent phenotype of BV2 cells after TMZ-induced genotoxicity was further confirmed by measuring the number of cells displaying β-gal activity, a well-recognized marker of cellular senescence. After the second TMZ-treatment, flow cytometry analysis was thus carried out using a 5-Dodecanoylaminofluorescein Di-β-D-Galactopyranoside (C12FDG) kit to measure β-galactosidase activity by the alkalinization of lysosomes as described by the manufacturer's instructions (Thermo Fisher Scientific, #D2893). TMZ induced a dose-dependent increase in the number β-gal+ cells. Up to 60% of β-gal+BV2 cells, i.e., senescent cells, were obtained at a TMZ concentration of 100 μM (data not shown).
# as §2
# A549-mRuby cells = assay: Cell growth in the drug screen (cell numbers day 4 / day 0); format: cell-based, human
# Procedure: (§3) Cells were seeded in a final volume of […] with DMEM+10% BCS. […] All the following steps were performed at room temperature. […] The screen was performed twice.
# OC43 [2] = assay: Drug repurposing screen, OC43 nucleoprotein staining in A549-mRuby cells; format: cell-based, human beta coronavirus OC43 (HCoV-OC43); details: for % staining of OC43: normalized to no-drug controls in the same plate
# Procedure: as §3
# [3] = system: human rhinovirus 16 (HRV16); assay: Picornavirus infection of Huh7 cells, plaque titration; format: cell-based; details: 10 M [sic] masitinib, MOI 0.01, 24 h
# Procedure: (§4) Prior to infection, Huh7 cells were pretreated for two hours. Virus was diluted using serum-free DMEM (SFM) to achieve an MOI of 0.01. Cell supernatants (collected at 24 hours post infection) were dilutions in SFM and used to inoculate Vero cells for 10-15 min at 37 C. Cells were incubated for 2 days at 37 C after overlaying them DMEM containing 2% NBCS and 0.8% agarose. […] The number of plaque forming units (PFU/per milliliter) were then calculated.
# [4] = system: human rhinovirus 2 (HRV2); assay: as above; format: cell-based; details: 10 M [sic] masitinib, MOI 0.01, 24 h
# Procedure: as §4
# [5] = system: human rhinovirus 14 (HRV14); assay: as above; format: cell-based; details: 10 M [sic] masitinib, MOI 0.01, 24 h
# Procedure: as §4
# coxsackievirus B3 (CVB3) = assay: as above; format: cell-based; details: 10 M [sic] masitinib, MOI 0.01, 24 h
# Procedure: as §4
# SARS-CoV-2 [6] = assay: SARS-CoV-2 progeny production, plaque titers on Vero E6 cells; format: cell-based; details: 10 μM; for decrease of SARS-CoV-2 progeny production: 2 h pre-treatment, MOI 0.5, supernatant 2 days
# Procedure: For SARS-CoV-2 plaque titers, cell supernatants from the infection described above were serially diluted (10-fold steps were used) and used to infect Vero E6 cells for 1 hour. Inoculum was removed and 1.25% methylcellulose DMEM solution was added to the cells and incubated for 3 days. Plates were fixed in 1:10 formalin for 1 hour, stained with crystal violet for 1 hour and were counted to determine plaque forming units (PFU)/ml.
# influenza A virus (IAV) = assay: Influenza A infection of MDCK-SIAT1-TMPRSS2 cells; format: cell-based, Influenza A/Puerto Rico/8/1934 (PR8); details: 10 μM, n=3, p>0.07
# Procedure: MDCK-SIAT1-TMPRSS2 cells were infected with Influenza A/Puerto Rico/8/1934 (PR8) at an MOI of 0.01 TCID50/cell. Following a 1 hour adsorption, virus was removed and the cells were washed. […] Supernatants were harvested and clarified at 20 hours post infection. The supernatants were titrated using TCID on MDCK-SIAT1-TMPRSS2 cells.
# [7] = system: lymphocytic choriomeningitis virus (LCMV); format: cell-based; details: 10 μM, n=2, p>0.07
# OC43 [8] = assay: Dose-response analysis of OC43 infection in A549-mRuby cells; format: cell-based, human beta coronavirus OC43 (HCoV-OC43); details: Betacoronavirus 1, OC43, A549, 48 h, read-out: EC50 against OC43 infection
# Procedure: Dose-response analysis of OC43 infection was done similarly to the drug screening, except cells were seeded at a concentration of 5,000 cells per well and the media contained 2% BCS instead of 10% BCS. OC43 staining was performed 2 days after infection and analyzed similarly to what was described for the drug screening. A sigmoid fit was used to extract EC50 values using Matlab.
# measles virus (MeV) = assay: Measles virus inhibition assay in Vero cells, luciferase; format: cell-based; details: 10 μM, n=3, p>0.07
# Procedure: Vero cells were infected with a luciferase-expressing measles virus at an MOI of 0.01 for 90 minutes. The inoculum was removed and added fresh medium containing masitinib or DMSO to the cells for further culture. Three days later, firefly luciferase activity was measured by adding 0.5 mM of D-Luciferin to each well and was quantified with an Infinite M200 Pro multimode microplate reader.
# [9] = target: picornaviruses 3C protease (Coxsackievirus B3, UniProt P03313); assay: 3C protease activity assay, luciferase reporter in Huh7 cells; details: n=6, p-value=7×10-6
# OC43 [10] = assay: OC43 replication in primary human airway epithelial cells; format: cell-based, human beta coronavirus OC43 (HCoV-OC43); details: Betacoronavirus 1, OC43, Epithelial cell, read-out: EC50, inhibition of OC43 replication
# [11] = system: Chikungunya virus (CHIKV); assay: Chikungunya virus infection; format: cell-based; details: 10 μM, n=3, p>0.07
# SARS-CoV-2 [12] = assay: SARS-CoV-2 intranasal challenge of K18-hACE2 mice; details: bid, ip, vs PBS; for clinical score: 1-6 days post infection
# [13] = 25 or 50 mg/kg, 4 and 6 days post infection
# picornaviruses 3C protease, sequence (P03313 1541-1723 limits assumed): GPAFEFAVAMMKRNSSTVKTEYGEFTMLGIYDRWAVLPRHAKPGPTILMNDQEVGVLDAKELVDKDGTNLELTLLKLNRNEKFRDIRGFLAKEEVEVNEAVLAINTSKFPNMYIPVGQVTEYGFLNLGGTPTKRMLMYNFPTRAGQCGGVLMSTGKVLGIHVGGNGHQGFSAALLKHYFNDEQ
compound,measurement,setting,value
O=CC(CC1CCNC1=O)NC(=O)C(CC1CCCCC1)NC(=O)c1cc2ccccc2[nH]1 (stereo not shown) [11a],inhibition of SARS-CoV-2 progeny production,SARS-CoV-2 [1],2 logs
O=CC(CC1CCNC1=O)NC(=O)C(Cc1cccc(F)c1)NC(=O)c1cc2ccccc2[nH]1 (stereo not shown) [11b],inhibition of SARS-CoV-2 progeny production,SARS-CoV-2 [1],2 logs
"O=c1c(O[C@@H]2O[C@H](CO)[C@@H](O)[C@H](O)[C@H]2O)c(-c2ccc(O)c(O)c2)oc2cc(O)cc(O)c12 [isoquercetin, 2-(3,4-dihydroxyphenyl)-5,7-dihydroxy-3-[(2S,3R,4S,5S,6R)-3,4,5-trihydroxy-6-(hydroxymethyl)oxan-2-yl]oxychromen-4-one]",cell viability of non-senescent proliferating BV2 cells,non-senescent BV2 cells,no significant change in cell viability
same,cytotoxicity at 20 µM,"senescent BV2 cells; Mus musculus, BV-2, 20 μM isoquercetin alone, 48 h, TMZ-induced senescent BV2 cells, read-out: reduction in senescent cell viability",~25%
same,"cell viability of senescent BV2 cells, single agent",senescent BV2 cells,modest reduction in cell viability
"Cc1ccc(NC(=O)c2ccc(CN3CCN(C)CC3)cc2)cc1Nc1nc(-c2cccnc2)cs1 [masitinib, 4-(4-methylpiperazin-1-ylmethyl)-N-[4-methyl-3-(4-pyridin-3ylthiazol-2-ylamino)phenyl]benzamide]",number of cells at day 4 divided by number of cells at day 0,A549-mRuby cells; screen repeat #1,4.3
same,number of cells at day 4 divided by number of cells at day 0,A549-mRuby cells; screen repeat #2,4.7
same,mean % staining of OC43,"OC43 [2]; mean of two screen repeats, normalized to no-drug controls (=100), drug at 10 PM as printed, day 4",12.2%
same,% staining of OC43,OC43 [2]; screen repeat #1,14.4%
same,% staining of OC43,OC43 [2]; screen repeat #2,10.1%
same,replication of human rhinovirus 16 (HRV16),[3],effective in blocking the replication
same,replication of human rhinovirus 2 (HRV2),[4],effective in blocking the replication
same,replication of human rhinovirus 14 (HRV14),[5],effective in blocking the replication
same,replication of coxsackievirus B3 (CVB3),coxsackievirus B3 (CVB3),effective in blocking the replication
same,decrease of SARS-CoV-2 progeny production,SARS-CoV-2 [6],over 5 logs
same,decrease of SARS-CoV-2 progeny production,SARS-CoV-2 [6]; listed as Masitinib,> 5 logs
same,reduction in viral titers (SARS-CoV-2 progeny),"SARS-CoV-2 [6]; n=3, p<0.001",statistically significant
same,effect on cells infected by influenza A virus (IAV),influenza A virus (IAV),did not show a significant effect
same,effect on cells infected by lymphocytic choriomeningitis virus (LCMV),[7],did not show a significant effect
same,pEC50,OC43 [8],5.68
same,effect on cells infected by measles virus (MeV),measles virus (MeV),did not show a significant effect
same,cell viability of non-senescent proliferating BV2 cells,non-senescent BV2 cells,no significant change in cell viability
same,activity of the 3C protease in cells,[9],significantly inhibited
same,pEC50,OC43 [10],6.24
same,effect on cells infected by Chikungunya virus (CHIKV),[11],did not show a significant effect
same,clinical score,SARS-CoV-2 [12]; 25 mg/kg,significant decrease
same,clinical score,SARS-CoV-2 [12]; 50 mg/kg,significant decrease
same,SARS-CoV-2 viral load in the lung,SARS-CoV-2 [12]; [13],significant decrease
same,SARS-CoV-2 viral load in the nasal turbinates,SARS-CoV-2 [12]; [13],significant decrease
same,cytotoxicity at 2 µM,"senescent BV2 cells; Mus musculus, BV-2, 48 h, read-out: reduction in senescent cell viability",~25%
same,"cell viability of senescent BV2 cells, single agent",senescent BV2 cells,modest reduction in cell viability
